# Legend:
# [1] = tested on: pancreatic models; assay: Preclinical in vivo pancreatic models, survival; conditions: IV administration, alone and in combination with gemcitabine
# Source text: (§1) The composition comprising Coenzyme Q10 evaluated in this study is a ubidecarenone containing intravenous (IV) nanodispersion that switches cancer energy generation from glycolysis to mitochondrial oxidative phosphorylation to elicit an anticancer effect.
# [2] = Phase I clinical trial; monotherapy and in combination with gemcitabine; IV
# Source text: as §1
# [3] = tested on: metastatic pancreatic cancer; assay: Phase 2 clinical study, efficacy (RECIST 1.1, TTP, PFS, OS)
# Method: Eligible patients (aged ≥18 y) were relapsed/refractory to standard treatment and met inclusion/exclusion criteria. […] Each received either two 72-hr infusions of 110 mg/kg IV Coenzyme Q10 alone (Monotherapy) or in combination with gemcitabine (Combination Therapy), per week. Tumor response was evaluated at week 10 and then every 8 weeks. Clinical assessments included investigator observations and patient reports. This study occurred in two parts: Part 1 of the study enrolled ten (10) patients in the Coenzyme Q10 (monotherapy arm) and ten (10) patients in the Coenzyme Q10 plus gemcitabine (combination therapy arm) with intent to enroll the additional 15 patients (Part 2) into the applicable treatment arm(s) based on RECIST v1.1 clinical response.
# Patients with no prior gemcitabine treatments prior to screening for the study, or prior gemcitabine treatment >3 months prior to screening for the study were assigned to the combination therapy group. Patients with prior gemcitabine discontinued due to toxicity in prior treatment, patients unable to tolerate a dose of 800 mg/m^2 weekly at any point due to toxicity, and patients with prior gemcitabine treatment ≤3 months prior to screening for the study were assigned to the monotherapy group.
# (§2) A Coenzyme Q10 Nanosuspension Injection (40 mg/mL) was administered IV over 144 hours. Each patient received 2 consecutive 72-hour infusions per week. Monotherapy arm patients received a Coenzyme Q10 dose of 110 mg/Kg only weekly. Patients in the combination therapy arm received a Coenzyme Q10 dose of 110 mg/Kg and gemcitabine IV once weekly (starting at week 3) at a starting dose of 1000 mg/m^2.
# The primary objective of the study was to evaluate the Overall Response Rate (ORR) in patients treated with the combination of Coenzyme Q10 with gemcitabine or Coenzyme Q10 as a monotherapy. The secondary objectives were to evaluate Overall Survival (OS), Progression-Free Survival (PFS) overall and at around 10 weeks (equal to 2 cycles of treatment), Time to Progression (TTP), Tumor Response using Adaptive Molecular Responses (multi-omic molecular profiling), the toxicity profile of Coenzyme Q10 with gemcitabine and as monotherapy when given over 144-hour intravenous (IV) infusion in patients with advanced pancreatic cancer, changes in carbohydrate antigen (CA) 19-9 levels, and patient reported Quality of Life (QOL) using the validated FACT-HEP PRO.
# The study described above in Example 1 was continued and additional patients were evaluated.
# [4] = Phase 2 clinical study, adverse events / toxicity profile; conditions: for Patients with an AE: safety population (31 patients), % of all 31
# Method: Eligible patients (aged ≥18 y) were relapsed/refractory to standard treatment and met inclusion/exclusion criteria. […] Each received either two 72-hr infusions of 110 mg/kg IV Coenzyme Q10 alone (Monotherapy) or in combination with gemcitabine (Combination Therapy), per week. Tumor response was evaluated at week 10 and then every 8 weeks. Clinical assessments included investigator observations and patient reports.
# as §2
# [5] = Example 1, overall current population
# [6] = Example 1, preliminary, both arms
# [7] = treatment-emergent, safety population
smiles,measurement,setting,value
COC1=C(OC)C(=O)C(C/C=C(\C)CC/C=C(\C)CC/C=C(\C)CC/C=C(\C)CC/C=C(\C)CC/C=C(\C)CC/C=C(\C)CC/C=C(\C)CC/C=C(\C)CCC=C(C)C)=C(C)C1=O [Coenzyme Q10],duration of survival outcomes,[1],significantly improved
same,MTD,[2],110 mg/kg
same,mean overall survival,[3]; [5],125 days
same,mean time to progression (TTP),[3]; [5],68 days
same,median overall survival,[3]; [5],108 days
same,median time to progression (TTP),[3]; [5],53 days
same,patients with SD <4 months,[3]; [6],4
same,patients with SD >4 months,[3]; [6],3
same,"stable disease (SD) noted, number of patients by arm","[3]; Example 1, preliminary, of 13 evaluable patients",1
same,"stable disease (SD) noted, number of patients","[3]; Example 1, preliminary, of 13 evaluable patients, both arms",7
same,"best ORR of stable disease (SD), share of ATC population","[3]; Example 2, adequately treated cohort, n=9/18, with gemcitabine",50%
same,median Progression-Free Survival (PFS),"[3]; Example 2, with gemcitabine, 95% CI 70-131, FIG. 4",118 days
same,median time to progression (TTP),"[3]; Example 2, with gemcitabine, 95% CI 70-147, FIG. 3",121 days
same,median Overall Survival (OS),"[3]; Example 2, with gemcitabine, 95% CI 131-228, FIG. 5",218 days
same,correlation of time of Coenzyme Q10 exposure with time to progression,"[3]; FIG. 1, monotherapy or combination therapy",positively correlated
same,correlation of time of Coenzyme Q10 exposure with overall survival,"[3]; FIG. 2, monotherapy or combination therapy",positively correlated
same,Discontinuation from the study: Disease Progression,[3]; Overall to Date (N = 47),12 (25.5) N (%)
same,patients who experienced at least 1 AE,[4]; Example 1,All
same,"INR increase, frequency of AE","[4]; Example 1, 31 treated patients",48.4%
same,"abdominal pain, frequency of AE","[4]; Example 1, 31 treated patients",35.5%
same,"fatigue, frequency of AE","[4]; Example 1, 31 treated patients",38/7
same,"thrombocytopenia, frequency of AE","[4]; Example 1, 31 treated patients",35.5%
same,tolerability,"[4]; Example 1, Phase 2",well-tolerated
same,AEs considered definitely related to study drug,"[4]; Example 1, number of AEs",10
same,AEs considered possibly related to study drug,"[4]; Example 1, number of AEs",19
same,AEs considered probably related to study drug,"[4]; Example 1, number of AEs",14
same,most common AE's,[4]; Example 2,GI related
same,tolerability,[4]; Example 2,well tolerated
same,Number of AEs,[4]; [7],347
same,Subjects with any AE leading to study drug discontinuation,[4]; [7],4 (12.9) N (%)
same,Subjects with any Infusion reactions,[4]; [7],0 N (%)
same,Subjects with any Serious AE,[4]; [7],12 (38.7) N (%)
same,Subjects with any ≥Grade 3 AE,[4]; [7],31 (100) N (%)
same,Patients with an AE,"[4]; treatment-emergent, listed as Coenzyme Q10-IV",31 (100) N (%)
same,Patients with an AE,"[4]; treatment-emergent, listed as Mono",13 (41.9) N (%)

# Reference: patent US20200138744A1, “METHODS OF TREATING PANCREATIC CANCER USING COENZYME Q10” (Berg LLC, priority 2018, published 2020)
